Test in all cases: GloSensor forskolin-stimulated cAMP assay, NPFFR2 mutants
Format in all cases: cell-based
(Cyclic AMP is a second messenger, typically raised through Gs and lowered through Gi signalling.)

The target in test [1] is T1, NPFFR2 mutants (Homo sapiens, UniProt Q9Y5X5, Y321A).
T1 construct: expressed in transfected cells; host or cells: HEK293T (pcDNA3.1 NPFFR2 mutants)
The following applies: NPFFR2 Y2195.38A, HEK293T, three independent experiments. From the text:
(§1) Figure 2 Interaction of hNPSF with NPFFR2. (A) Residues participating in the interactions between hNPSF and NPFFR2 in the transmembrane (TM) binding pocket are shown as sticks. Dashed lines indicate polar interactions and hydrogen bonds between residues. Zoomed-in views highlighting interactions of the C-terminal segment (residues −1 to −4, PQRF), middle segment (residues −5 to −8, FLFQ), and the N-terminal segment (residues −9 to −11, SQA) of hNPSF are enclosed in red, blue, and yellow boxes, respectively. (B) NPFFR2 residues interacting with hNPSF were mutated to alanine, and the impact of each mutation on the EC50 value (ΔpEC50) was investigated using a forskolin-stimulated cAMP assay, after confirming surface expression of each mutant by an ELISA-based surface expression assay (Appendix Fig. S5). Three independent experiments (with technical triplicates) were conducted for each mutant. The bar graphs represent the mean of ΔpEC50 values from each experiment, with error bars indicating SEM. Statistical analyses were performed using ordinary one-way ANOVA followed by Dunnett’s test, comparing to the wild-type response. ns (not significant, P > 0.05); *P < 0.05; **P < 0.01; ***P < 0.001. Source data are available online for this figure.
(§2) HEK293T cells were seeded at a density of 6 × 10^5 cells per well in a six-well cell culture plate (SPL) and co-transfected with expression plasmids encoding GloSensor™ and each NPFFR construct, using 1 µg to 4 µg of DNA per well according to the Lipofectamine™ 2000 Transfection Reagent (Invitrogen) protocol. After 48 h of incubation under standard conditions (37 °C, 5% CO2), the cells were detached using Accutase solution (Sigma-Aldrich) and washed with PBS. The cells were then pelleted by centrifugation, resuspended in CO2-independent medium (Gibco) supplemented with Firefly D-Luciferin (0.5 mg/ml, NanoLight), and distributed into a 96-well white plate (SPL). After a 2-hour incubation, serially diluted ligands and 0.5 μM forskolin were added to each well to detect ligand-induced signaling. Luminescence signals were measured using a Mithras LB940 instrument (Berthold) with a measurement time of 1 s per well.
(§3) Data from the GloSensor^TM cAMP signaling assays were analyzed using GraphPad Prism with a three-parameter logistic model to fit concentration-response curves for both wild-type (WT) and mutant receptors. Mutant expression levels and DNA amounts were adjusted to match WT conditions. ΔpEC50 values were calculated by subtracting the log EC50 of the WT receptor from that of each mutant. Results are presented as mean ± SEM from three independent biological replicates, each performed in duplicate or more. Error bars represent the SEM. Statistical significance was assessed using one-way ANOVA, followed by Dunnett’s tests comparisons to the WT receptor. Significance levels were reported as follows: ns (not significant, P > 0.05); *P < 0.05; **P < 0.01; ***P < 0.001.
(§4) Appendix Figure S5. GloSensorTM cAMP assays of mutants and wild-type NPFFR2.
(§5) The dose-response of cAMP assay data for each mutant (red) presented in Fig. 2B are compared against the wild-type NPFFR2 (blue). Each experiment was conducted after adjusting the mutant's expression level to that of the wild-type NPFFR2 (Appendix Fig. S3), and pcDNA3.1 was used to match the total amount of DNA transfected. Data points represent mean values from three independent experiments (each with technical triplicate), with error bars indicating SEM. Raw data were normalized to the vehicle -treated (0%) and 0.5 μM forskolin-treated (100%) responses.
(§6) (% of forskolin stimulation) […]

Test [2] deals with T2, NPFFR2 mutants (Homo sapiens, UniProt Q9Y5X5, N413A).
T2 construct: expressed in transfected cells; host or cells: HEK293T (pcDNA3.1 NPFFR2 mutants)
The following applies: NPFFR2 N3117.31A, HEK293T, three independent experiments.
Description: as §1, §2, §3, §4, §5, §6

Test [3] addresses T3, NPFFR2 mutants (Homo sapiens, UniProt Q9Y5X5, V305A).
T3 construct: expressed in transfected cells; host or cells: HEK293T (pcDNA3.1 NPFFR2 mutants)
As to conditions: NPFFR2 V203ECL2A, HEK293T, three independent experiments.
Description: as §1, §2, §3, §4, §5, §6

For test [4], the target named is T4, NPFFR2 mutants (Homo sapiens, UniProt Q9Y5X5, W393A).
T4 construct: expressed in transfected cells; host or cells: HEK293T (pcDNA3.1 NPFFR2 mutants)
The following applies: NPFFR2 W2916.52A, HEK293T, three independent experiments.
Description: as §1, §2, §3, §4, §5, §6

Test [5] deals with T5, NPFFR2 mutants (Homo sapiens, UniProt Q9Y5X5, E289A).
T5 construct: expressed in transfected cells; host or cells: HEK293T (pcDNA3.1 NPFFR2 mutants)
The following applies: NPFFR2 E187ECL2A, HEK293T, three independent experiments.
Description: as §1, §2, §3, §4, §5, §6

For test [6], the target named is T6, NPFFR2 mutants (Homo sapiens, UniProt Q9Y5X5, L141A).
T6 construct: expressed in transfected cells; host or cells: HEK293T (pcDNA3.1 NPFFR2 mutants)
As to conditions: NPFFR2 L39NtA, HEK293T, three independent experiments.
Description: as §1, §2, §3, §4, §5, §6

This note sets out measurements from PMC12069643, “Structural insights into the selective recognition of RF-amide peptides by neuropeptide FF receptor 2” (EMBO Reports, 2025).

Structures are written as SMILES.

T2 sequence (Q9Y5X5 103-522 N413A): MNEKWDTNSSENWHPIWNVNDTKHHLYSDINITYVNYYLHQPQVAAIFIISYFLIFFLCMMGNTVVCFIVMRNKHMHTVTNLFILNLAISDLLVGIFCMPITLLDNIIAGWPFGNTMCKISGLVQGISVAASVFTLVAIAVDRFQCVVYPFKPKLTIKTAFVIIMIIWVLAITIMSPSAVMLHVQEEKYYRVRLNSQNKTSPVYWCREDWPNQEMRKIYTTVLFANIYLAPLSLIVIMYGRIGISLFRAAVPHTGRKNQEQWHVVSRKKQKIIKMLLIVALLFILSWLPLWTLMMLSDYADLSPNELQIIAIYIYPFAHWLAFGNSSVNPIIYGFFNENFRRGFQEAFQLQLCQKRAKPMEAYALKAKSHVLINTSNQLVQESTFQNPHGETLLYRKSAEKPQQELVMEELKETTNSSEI
T5 sequence (Q9Y5X5 103-522 E289A): as the sequence (Q9Y5X5 103-522 N413A) above, with E187A, A311N counted along it
T6 sequence (Q9Y5X5 103-522 L141A): as the sequence (Q9Y5X5 103-522 N413A) above, with L39A, A311N counted along it
T4 sequence (Q9Y5X5 103-522 W393A): as the sequence (Q9Y5X5 103-522 N413A) above, with W291A, A311N counted along it
T3 sequence (Q9Y5X5 103-522 V305A): as the sequence (Q9Y5X5 103-522 N413A) above, with V203A, A311N counted along it
T1 sequence (Q9Y5X5 103-522 Y321A): as the sequence (Q9Y5X5 103-522 N413A) above, with Y219A, A311N counted along it

Take `CC(C)C[C@H](NC(=O)[C@H](Cc1ccccc1)NC(=O)[C@H](C)NC(=O)[C@H](CCC(N)=O)NC(=O)[C@@H](N)CO)C(=O)N[C@@H](Cc1ccccc1)C(=O)N[C@@H](CCC(N)=O)C(=O)N1CCC[C@H]1C(=O)N[C@@H](CCC(N)=O)C(=O)N[C@@H](CCCNC(=N)N)C(=O)N[C@@H](Cc1ccccc1)C(N)=O` [hNPSF]: the Emax in test [1] (HEK-293T) was found to be 72 ± 3%; in test [2] (HEK-293T) it was 69 ± 8%; in test [3] (HEK-293T), 78 ± 3%; in test [4] (HEK-293T), 80 ± 4%; in test [5] (HEK-293T) it was 75 ± 3%; in test [6] (HEK-293T), 70 ± 3%. Also, the EC50 in test [1] was 100 nM; in test [2], 1260 nM; in test [3], 200 nM; in test [4] it was 79.4 nM; in test [5] it was 1 nM; in test [6], 10 nM.

As a reminder, the Emax is the size of the effect at its maximum, as opposed to the concentration needed. As usually defined, the EC50 is the midpoint of the concentration-response curve. Read a high EC50 as weaker potency.
